The assay has as its target ADAMTS4 (Homo sapiens (Human), UniProt O75173). In words: Selectivity assay for ADAMTS-7 modulators: ADAMTS4 (FRET substrate). The format is biochemical. As to conditions: ADAMTS4 (R&D 4307-AD) 50 nM, substrate Dabcyl-EEVKAKVQPY-Glu(Edans)-NH2 1 μM, 120 min, 32° C. The essentials:
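Human ADAMTS4 with compound in DMSO, or DMSO control; reaction started by adding FRET substrate in reaction buffer. Fluorescence increase measured at substrate-specific wavelengths. IC50 derived from % inhibition of enzyme activity versus compound concentration.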
ADAMTS4, sequence (O75173 213-685): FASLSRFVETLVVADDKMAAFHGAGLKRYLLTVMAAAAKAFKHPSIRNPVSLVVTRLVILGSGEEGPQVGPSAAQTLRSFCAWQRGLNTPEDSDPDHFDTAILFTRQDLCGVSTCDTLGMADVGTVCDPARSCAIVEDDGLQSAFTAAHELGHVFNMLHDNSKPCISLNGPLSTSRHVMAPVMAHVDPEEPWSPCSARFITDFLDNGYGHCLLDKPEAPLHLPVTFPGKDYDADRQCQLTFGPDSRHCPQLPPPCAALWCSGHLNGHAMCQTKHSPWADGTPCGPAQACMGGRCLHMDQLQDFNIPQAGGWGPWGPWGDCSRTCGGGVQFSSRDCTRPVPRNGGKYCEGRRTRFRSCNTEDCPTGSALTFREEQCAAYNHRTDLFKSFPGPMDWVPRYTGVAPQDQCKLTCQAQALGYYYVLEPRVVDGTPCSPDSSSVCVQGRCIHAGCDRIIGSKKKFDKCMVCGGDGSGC
Broadly, the IC50 is the concentration that gives 50% inhibition. Lower therefore signals inhibition by little substance. `O=C1NC(=O)[C@](CNC(=O)c2ccncc2-c2ccc(C(F)(F)F)cc2)(C2CC2)N1` [Example 83, N-{[(4R)-4-Cyclopropyl-2,5-Dioxoimidazolidin-4-Yl]Methyl}-3-[4-(Trifluoromethyl)Phenyl]Pyridine-4-Carboxamide] came in with a half-maximal inhibitory concentration (IC50) of 36 µM.

On to `O=C1NC(=O)C(CNC(=O)c2ccccc2-c2ccc(C(F)(F)F)cc2)(C2CC(F)(F)C2)N1` (stereo not drawn) [Example 248, Ent-N-{[4-(3,3-Difluorocyclobutyl)-2,5-Dioxoimidazolidin-4-Yl]Methyl}-4′-(Trifluoromethyl)[Biphenyl]-2-Carboxamide], for which the half-inhibitory concentration (IC50) was greater than 50 µM.

As for `O=C1NC(=O)C(CNC(=O)c2ccc(F)cc2-c2ccc(Cl)cc2)(c2ccnn2C(F)F)N1` (racemic) [Example 257, Rac-4′-Chloro-N-({4-[1-(Difluoromethyl)-1H-Pyrazol-5-Yl]-2,5-Dioxoimidazolidin-4-Yl}Methyl)-5-Fluoro[Biphenyl]-2-Carboxamide], the half-maximal inhibitory concentration (IC50) was 11 µM.

The compound `CC1CCC1C1(CNC(=O)c2ccccc2-c2ccc(C(F)(F)F)cc2)NC(=O)NC1=O` (stereo not drawn) [Example 26, Ent-N-{[4-(2-Methylcyclobutyl)-2,5-Dioxoimidazolidin-4-Yl]Methyl}-4′-(Trifluoromethyl)[Biphenyl]-2-Carboxamide] displayed an IC50 greater than 50 µM.

For the compound `O=C1NC(=O)C(CNC(=O)c2ccccc2-c2ccc(C(F)(F)F)cc2)(C2(Cl)CC2)N1` (racemic) [Example 279, Rac-N-{[4-(1-Chlorocyclopropyl)-2,5-Dioxoimidazolidin-4-Yl]Methyl}-4′-(Trifluoromethyl)[Biphenyl]-2-Carboxamide], the IC50 was determined as 13 µM.

`O=C1NC(=O)C(CNC(=O)c2cc(F)ccc2-c2ccc(C(F)(F)F)cc2)(c2ncsc2C(F)(F)F)N1` (racemic) [Example 265, Rac-N-({2,5-Dioxo-4-[5-(Trifluoromethyl)-1,3-Thiazol-4-Yl]Imidazolidin-4-Yl}Methyl)-4-Fluoro-4′-(Trifluoromethyl)[Biphenyl]-2-Carboxamide] gave an IC50 of 9.1 µM.

`Cc1nc(C)c(C2(CNC(=O)c3ccccc3-c3ccc(C(F)(F)F)nc3)NC(=O)NC2=O)s1` (stereo not drawn) [Example 74, Ent-N-{[4-(2,4-Dimethyl-1,3-Thiazol-5-Yl)-2,5-Dioxoimidazolidin-4-Yl]Methyl}-2-[6-(Trifluoromethyl)Pyridin-3-Yl]Benzamide] gave an IC50 of 5.2 µM.

Compound `O=C1NC(=O)C(CNC(=O)c2ccc(F)cc2-c2ccc(C(F)(F)F)cc2)(C23CC(F)(C2)C3)N1` (single isomer, unassigned; ent-5) [Example 294, Ent-5-Fluoro-N-{[4-(3-Fluorobicyclo[1.1.1]Pentan-1-Yl)-2,5-Dioxoimidazolidin-4-Yl]Methyl}-4′-(Trifluoromethyl)[Biphenyl]-2-Carboxamide] came in with an IC50 of 37 µM.

Compound `O=C1NC(=O)C(CNC(=O)c2ccc(F)cc2-c2ccc(Cl)cc2)(C2(F)CC2)N1` (racemic) [Example 249, Rac-4′-Chloro-5-Fluoro-N-{[4-(1-Fluorocyclopropyl)-2,5-Dioxoimidazolidin-4-Yl]Methyl}[Biphenyl]-2-Carboxamide] displayed an IC50 of 35 µM.

Compound `Cc1c(C2(CNC(=O)c3ccccc3-c3ccc(C(F)(F)F)cc3)NC(=O)NC2=O)cnn1C` (stereo not drawn) [Example 31, Ent-N-{[4-(1,5-Dimethyl-1H-Pyrazol-4-Yl)-2,5-Dioxoimidazolidin-4-Yl]Methyl}-4′-(Trifluoromethyl)[Biphenyl]-2-Carboxamide] had a concentration for half-maximal inhibition (IC50) of 6.5 µM.

For `O=C1NC(=O)C(CNC(=O)c2ccccc2-c2ccc(Cl)cc2)(c2ccnn2C(F)F)N1` (racemic) [Example 258, Rac-4′-Chloro-N-({4-[1-(Difluoromethyl)-1H-Pyrazol-5-Yl]-2,5-Dioxoimidazolidin-4-Yl}Methyl)[Biphenyl]-2-Carboxamide], the midpoint of inhibition, the IC50, lay at 12 µM.

Take `Cn1ccnc1C1(CNC(=O)c2c(F)cccc2-c2ccc(C(F)(F)F)cc2)NC(=O)NC1=O` (single isomer, unassigned; ent-3) [Example 159, Ent-3-Fluoro-N-{[4-(1-Methyl-1H-Imidazol-2-Yl)-2,5-Dioxoimidazolidin-4-Yl]Methyl}-4′-(Trifluoromethyl)[Biphenyl]-2-Carboxamide]: inhibition was half-maximal at 3.75 µM (IC50).

Turning to `Cc1cnoc1C1(CNC(=O)c2ccccc2-c2ccc(C(F)(F)F)nc2)NC(=O)NC1=O` (stereo not drawn) [Example 78, Ent-N-{[4-(4-Methyl-1,2-Oxazol-5-Yl)-2,5-Dioxoimidazolidin-4-Yl]Methyl}-2-[6-(Trifluoromethyl)Pyridin-3-Yl]Benzamide], the 50% inhibitory concentration (IC50) is 14 µM.

The compound `Cc1ncsc1C1(CNC(=O)c2ccccc2-c2ccc(C(F)(F)F)nc2)NC(=O)NC1=O` (stereo not drawn) [Example 37, Ent-N-{[4-(4-Methyl-1,3-Thiazol-5-Yl)-2,5-Dioxoimidazolidin-4-Yl]Methyl}-2-[6-(Trifluoromethyl)Pyridin-3-Yl]Benzamide] displayed a concentration for half-maximal inhibition (IC50) of 8.7 µM.

In turn, `O=C1NC(=O)C(CNC(=O)c2ccc(F)cc2-c2ccc(C(F)(F)F)cc2)(c2ccnn2C(F)F)N1` (racemic) [Example 262, Rac-N-({4-[1-(Difluoromethyl)-1H-Pyrazol-5-Yl]-2,5-Dioxoimidazolidin-4-Yl}Methyl)-5-Fluoro-4′-(Trifluoromethyl)[Biphenyl]-2-Carboxamide] registered a 50% inhibitory concentration (IC50) of 19 µM.

As for `Cn1nccc1C1(CNC(=O)c2ccc(F)cc2-c2ccc(Cl)cc2)NC(=O)NC1=O` (racemic) [Example 179, Rac-4′-Chloro-5-Fluoro-N-{[4-(1-Methyl-1H-Pyrazol-5-Yl)-2,5-Dioxoimidazolidin-4-Yl]Methyl}[Biphenyl]-2-Carboxamide], it took 12 µM to reach half-maximal inhibition (IC50).

For `O=C1NC(=O)C(CNC(=O)c2ccc(F)cc2-c2ccc(C(F)(F)F)cc2)(c2cscn2)N1` (stereo not drawn) [Example 199, Ent-N-{[2,5-Dioxo-4-(1,3-Thiazol-4-Yl)Imidazolidin-4-Yl]Methyl}-5-Fluoro-4′-(Trifluoromethyl)[Biphenyl]-2-Carboxamide], half-maximal inhibition (IC50) was put at 16 µM.

Take `O=C1NC(=O)[C@](CNC(=O)c2ccc(C(F)(F)F)cc2-c2ccc(Cl)cc2)(C2CC2)N1` [Example 89, 4′-Chloro-N-{[(4R)-4-Cyclopropyl-2,5-Dioxoimidazolidin-4-Yl]Methyl}-5-(Trifluoromethyl)[1,1′-Biphenyl]-2-Carboxamide]: the concentration for half-maximal inhibition (IC50) came to 7.6 µM.

Consider `Cn1nccc1C1(CNC(=O)c2ccc(F)cc2-c2ccc(C(F)(F)F)cc2)NC(=O)NC1=O` (single isomer, unassigned; ent-5) [Example 184, Ent-5-Fluoro-N-{[4-(1-Methyl-1H-Pyrazol-5-Yl)-2,5-Dioxoimidazolidin-4-Yl]Methyl}-4′-(Trifluoromethyl)[Biphenyl]-2-Carboxamide], for which the IC50 was determined as 9.37 µM.

In the case of `Cn1nccc1C1(CNC(=O)c2ccc(Cl)cc2-c2ccc(Cl)cc2)NC(=O)NC1=O` (single isomer, unassigned; ent-4) [Example 193, Ent-4′,5-Dichloro-N-{[4-(1-Methyl-1H-Pyrazol-5-Yl)-2,5-Dioxoimidazolidin-4-Yl]Methyl}[Biphenyl]-2-Carboxamide], 1.57 µM corresponded to half-maximal inhibition (IC50).

As for `O=C1NC(=O)[C@](CNC(=O)c2ccccc2-c2ccc(C3CC3)cc2)(C2CC2)N1` [Example 105, 4′-Cyclopropyl-N-{[(4R)-4-Cyclopropyl-2,5-Dioxoimidazolidin-4-Yl]Methyl}[Biphenyl]-2-Carboxamide], inhibition was half-maximal at 4.9 µM (IC50).

The compound `Cc1ccc(C(=O)NCC2(c3scnc3C)NC(=O)NC2=O)c(-c2ccc(C(F)(F)F)cc2)c1` (single isomer, unassigned; ent-5) [Example 8, Ent-5-Methyl-N-{[4-(4-Methyl-1,3-Thiazol-5-Yl)-2,5-Dioxoimidazolidin-4-Yl]Methyl}-4′-(Trifluoromethyl)[Biphenyl]-2-Carboxamide] registered an IC50 of 3.8 µM.

Take `CC(F)(F)c1ccc(-c2ccccc2C(=O)NC[C@@]2(C3CC3)NC(=O)NC2=O)cc1` [Example 125, N-{[(4R)-4-Cyclopropyl-2,5-Dioxoimidazolidin-4-Yl]Methyl}-4′-(1,1-Difluoroethyl)[Biphenyl]-2-Carboxamide]: half-maximal inhibition (IC50) required 8.7 µM.

`Cn1nccc1C1(CNC(=O)c2c(F)cccc2-c2ccc(Cl)cc2)NC(=O)NC1=O` (single isomer, unassigned; ent-4) [Example 312, Ent-4′-Chloro-3-Fluoro-N-{[4-(1-Methyl-1H-Pyrazol-5-Yl)-2,5-Dioxoimidazolidin-4-Yl]Methyl}[Biphenyl]-2-Carboxamide]: it took 20 µM to reach half-maximal inhibition (IC50).

The compound `Cc1cn(C)nc1C1(CNC(=O)c2ccccc2-c2ccc(C(F)(F)F)cc2)NC(=O)NC1=O` (racemic) [Example 39, Rac-N-{[4-(1,4-Dimethyl-1H-Pyrazol-3-Yl)-2,5-Dioxoimidazolidin-4-Yl]Methyl}-4′-(Trifluoromethyl)[Biphenyl]-2-Carboxamide] had a 50% inhibitory concentration (IC50) of 10 µM.

On to `O=C1NC(=O)C(CNC(=O)c2ccc(F)cc2-c2ccc(C(F)(F)F)cc2)(c2ccnn2C(F)F)N1` (stereo not drawn) [Example 296, Ent-N-({4-[1-(Difluoromethyl)-1H-Pyrazol-5-Yl]-2,5-Dioxoimidazolidin-4-Yl}Methyl)-5-Fluoro-4′-(Trifluoromethyl)[Biphenyl]-2-Carboxamide], for which the IC50 is 9.5 µM.

For `O=C1NC(=O)[C@](CNC(=O)c2ccc(OC(F)(F)F)cc2-c2ccc(C(F)(F)F)cc2)(C2CC2)N1` [Example 92, N-{[(4R)-4-Cyclopropyl-2,5-Dioxoimidazolidin-4-Yl]Methyl}-5-(Trifluoromethoxy)-4′-(Trifluoromethyl)[1,1′-Biphenyl]-2-Carboxamide], half-maximal inhibition (IC50) was put at 19 µM.

`O=C1NC(=O)C(CNC(=O)c2cccc(F)c2-c2ccc(C(F)(F)F)cc2)(C2(F)CC2)N1` (single isomer, unassigned; ent-6) [Example 300, Ent-6-Fluoro-N-{[4-(1-Fluorocyclopropyl)-2,5-Dioxoimidazolidin-4-Yl]Methyl}-4′-(Trifluoromethyl)[Biphenyl]-2-Carboxamide] registered an IC50 of 23 µM.

The values are drawn from patent US12398120B2, “Substituted hydantoinamides as ADAMTS7 antagonists” (BAYER AKTIENGESELLSCHAFT, priority 2019, dated 2025).
